Assay results: patent US6448205B1, “Substituted 2-phenylpyridine as herbicide” (BASF Aktiengesellschaft, priority 1996, dated 2002)

Compound: COc1cc(-c2ncc([S+](C)[O-])cc2Cl)c(F)cc1Cl (stereo not shown) [No. 6, 3-Chloro-2-(4-chloro-2-fluoro-5-methoxyphenyl)-5-methylsulfinylpyridine]
- melting point: 118 °C
